pIC50: −log10 of the molar value.
How the values were obtained:
Plasma [1] = assay: Anticoagulant activity in rabbit plasma assessed as concentration required to double prothrombin time; type: functional, Oryctolagus cuniculus
Plasma [2] = assay: Anticoagulant activity in human plasma assessed as concentration required to double activated partial thromboplastin time; type: functional
Plasma [3] = assay: Anticoagulant activity in human plasma assessed as concentration required to double prothrombin time; type: functional
Plasma [4] = assay: Anticoagulant activity in rabbit plasma assessed as concentration required to double activated partial thromboplastin time; type: functional, Oryctolagus cuniculus
Coagulation factor X [5] = biological target: T1, Coagulation factor X (Homo sapiens, UniProt P00742); assay: Inhibition of human F10a assessed as decrease in p-nitroaniline cleavage from pefachrome F10a at 5 uM preincubated for 10 mins followed by substrate addition measured after 20 mins relative to control
Coagulation factor X [6] = biological target: T1, Coagulation factor X; assay: Inhibition of human F10a assessed as decrease in p-nitroaniline cleavage from pefachrome F10a at 0.5 uM preincubated for 10 mins followed by substrate addition measured after 20 mins relative to control
Rattus norvegicus = assay: Inhibition of thrombus formation in Sprague-Dawley rat at 10 mg/kg, po after 2 hrs relative to control; type: functional
Coagulation factor X [7] = biological target: T1, Coagulation factor X; assay: Inhibition of human F10a assessed as decrease in p-nitroaniline cleavage from pefachrome F10a preincubated for 10 mins followed by substrate addition measured after 20 mins

T1 sequence (P00742 41-179 limits assumed): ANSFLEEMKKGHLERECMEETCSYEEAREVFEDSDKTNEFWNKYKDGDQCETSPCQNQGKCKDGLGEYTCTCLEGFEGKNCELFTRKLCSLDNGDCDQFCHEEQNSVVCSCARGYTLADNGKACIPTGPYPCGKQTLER
T1 sequence (P00742 235-488 limits assumed): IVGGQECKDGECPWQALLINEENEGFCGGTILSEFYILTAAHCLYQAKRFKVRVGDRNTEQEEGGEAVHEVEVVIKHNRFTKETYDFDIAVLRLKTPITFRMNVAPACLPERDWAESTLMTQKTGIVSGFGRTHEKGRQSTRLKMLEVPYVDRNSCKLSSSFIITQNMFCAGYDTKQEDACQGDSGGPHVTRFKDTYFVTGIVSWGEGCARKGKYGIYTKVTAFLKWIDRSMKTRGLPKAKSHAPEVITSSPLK

| Structure (SMILES) | 2PT (Plasma [1]) [µM] | 2aPTT (Plasma [2]) [µM] | 2PT (Plasma [3]) [µM] | 2aPTT (Plasma [4]) [µM] | inhibition (Coagulation factor X [5]) [%] | inhibition (Coagulation factor X [6]) [%] | inhibition in vivo at 10 mg/kg (Rattus norvegicus) [%] | pIC50 (Coagulation factor X [7]) |
| --- | --- | --- | --- | --- | --- | --- | --- | --- |
| COc1ccc(-n2nc(C3=NCCN3)c3c2C(=O)N(c2ccc(N4CCCCC4=O)cc2)CC3)cc1 | 7.5 | 11.8 | 6.2 | 12.5 | – | – | – | – |
| COc1ccc(-n2nc(Cn3cnc(-c4ccc(F)cc4)n3)c3c2C(=O)N(c2ccc(N4CCCCC4=O)cc2)CC3)cc1 | 2.1 | 2.3 | 0.9 | 3.1 | 70.3 | 60.6 | – | – |
| COc1ccc(-n2nc(C3=NCCCN3)c3c2C(=O)N(c2ccc(N4CCCCC4=O)cc2)CC3)cc1 | 10.8 | 13.5 | 9.4 | 15.4 | – | – | – | – |
| COc1ccc(-n2nc(-n3cnnc3)c3c2C(=O)N(c2ccc(N4CCCCC4=O)cc2)CC3)cc1 | 5.7 | 10 | 4.9 | 13.7 | – | – | – | – |
| COc1ccc(-n2nc(C3=NCCN3C)c3c2C(=O)N(c2ccc(N4CCCCC4=O)cc2)CC3)cc1 | 9.6 | 10.5 | 8.8 | 12 | – | – | – | – |
| COc1ccc(-c2ncn(Cc3nn(-c4ccc(OC)cc4)c4c3CCN(c3ccc(N5CCCCC5=O)cc3)C4=O)n2)cc1 | 1.2 | 1.1 | 0.8 | 1.7 | 76.4 | 66.1 | – | – |
| COc1ccc(-n2nc(Cn3ccnn3)c3c2C(=O)N(c2ccc(N4CCCCC4=O)cc2)CC3)cc1 | 2.1 | 3.7 | 2.4 | 3.9 | – | – | – | – |
| COc1ccc(-n2nc(-n3cnnc3CN3CCOCC3)c3c2C(=O)N(c2ccc(N4CCCCC4=O)cc2)CC3)cc1 | 0.9 | 0.7 | 0.5 | 1.2 | 99 | 94.5 | 98 | 6.85 |
| COc1ccc(-n2nc(Cn3cc(C(N)=O)nn3)c3c2C(=O)N(c2ccc(N4CCCCC4=O)cc2)CC3)cc1 | 2.1 | 3.1 | 1.4 | 5.2 | – | – | – | – |
| COc1ccc(-n2nc(C3=NC(C)CN3)c3c2C(=O)N(c2ccc(N4CCCCC4=O)cc2)CC3)cc1 (stereo not given) | 10 | 14.6 | 8.9 | 17.1 | – | – | – | – |
| COc1ccc(-n2nc(C(N)=O)c3c2C(=O)N(c2ccc(N4CCCCC4=O)cc2)CC3)cc1 [APIXABAN] | 1 | 0.9 | 0.8 | 1.4 | – | – | 95 | – |
| COc1ccc(-n2nc(Cn3cc(C#N)nn3)c3c2C(=O)N(c2ccc(N4CCCCC4=O)cc2)CC3)cc1 | 0.9 | 1 | 0.7 | 1.5 | 94 | 86.7 | 89 | 6.44 |
| COc1ccc(-n2nc(-n3cnnc3CN3CCCC3)c3c2C(=O)N(c2ccc(N4CCCCC4=O)cc2)CC3)cc1 | 8.4 | 15.6 | 7.6 | 18 | – | – | – | – |
| COc1ccc(-n2nc(Cn3cnc(-c4ccncc4)n3)c3c2C(=O)N(c2ccc(N4CCCCC4=O)cc2)CC3)cc1 | 1.9 | 2.3 | 1.6 | 2.1 | – | – | – | – |
| COc1ccc(-c2nn(Cc3nn(-c4ccc(OC)cc4)c4c3CCN(c3ccc(N5CCCCC5=O)cc3)C4=O)c(=O)[nH]2)cc1 | 19.3 | 19.5 | 17.7 | 23.2 | – | – | – | – |
| CCN(CC)Cc1nncn1-c1nn(-c2ccc(OC)cc2)c2c1CCN(c1ccc(N3CCCCC3=O)cc1)C2=O | 8 | 9.6 | 7.2 | 11.5 | – | – | – | – |
| COc1ccc(-n2nc(Cn3cnc(-c4ccc(Cl)cc4)n3)c3c2C(=O)N(c2ccc(N4CCCCC4=O)cc2)CC3)cc1 | 3.5 | 3.6 | 1.9 | 5 | – | – | – | – |
| COc1ccc(-n2nc(C3=NCCCCN3)c3c2C(=O)N(c2ccc(N4CCCCC4=O)cc2)CC3)cc1 | 12.1 | 24.3 | 10.9 | 26.9 | – | – | – | – |
| COc1ccc(-n2nc(Cn3cnc(-c4ccccc4)n3)c3c2C(=O)N(c2ccc(N4CCCCC4=O)cc2)CC3)cc1 | 3.4 | 3.6 | 2.4 | 5 | – | – | – | – |
| COc1ccc(-n2nc(-n3cnnc3C)c3c2C(=O)N(c2ccc(N4CCCCC4=O)cc2)CC3)cc1 | 1.7 | 2.8 | 1.2 | 3 | 65.2 | 55.1 | – | – |
| COc1ccc(-n2nc(Cn3cnc(-c4cccnc4)n3)c3c2C(=O)N(c2ccc(N4CCCCC4=O)cc2)CC3)cc1 | 3.2 | 4.3 | 2 | 5.2 | – | – | – | – |
| COc1ccc(-n2nc(Cn3nc(-c4ccccc4)[nH]c3=O)c3c2C(=O)N(c2ccc(N4CCCCC4=O)cc2)CC3)cc1 | 12.4 | 27.1 | 11.7 | 29.8 | – | – | – | – |
| COc1ccc(-n2nc(-n3cnnc3N)c3c2C(=O)N(c2ccc(N4CCCCC4=O)cc2)CC3)cc1 | 5.9 | 8.3 | 4.1 | 9.1 | – | – | – | – |
| COc1ccc(-n2nc(Cn3nnc4ccccc43)c3c2C(=O)N(c2ccc(N4CCCCC4=O)cc2)CC3)cc1 | 29.4 | 31.6 | 25.2 | 39.1 | – | – | – | – |
| COc1ccc(-n2nc(-n3cnnn3)c3c2C(=O)N(c2ccc(N4CCCCC4=O)cc2)CC3)cc1 | 5.7 | 7.3 | 4.2 | 8.2 | – | – | – | – |

From ChEMBL document CHEMBL4024723, “Design, synthesis, and biological activity of novel tetrahydropyrazolopyridone derivatives as FXa inhibitors with potent anticoagulant activity” (Bioorg Med Chem, 2017)
